The results in this text go back to patent US11912693B2, “Compounds for modulating S1P1 activity and methods of using the same” (TREVENA, INC., priority 2017, dated 2024).

Assay [1] addresses T1, human sphingosine-1-phosphate receptor 1 (S1P1) (Homo sapiens (Human), UniProt P21453). The assay is described as follows: β-Arrestin2 recruitment assay (PathHunter), S1P1 CHO-K1 cells. It is filed as cell-based. The note with it: for Emax: CHO-K1, efficacy (SPAN) normalized to fingolimod, read-out: hS1P1 B-arrestin2 SPAN. A digest of the protocol:
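Enzyme-fragment complementation read-out: agonist-driven β-arrestin2 binding to ProLink-tagged human S1P1 in stable CHO-K1 cells restores β-galactosidase, measured 1 h at room temperature after a 60 min 37° C. compound incubation. Potency as pEC50, efficacy relative to fingolimod (SPAN).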
In general terms: Arrestin recruitment assays detect the binding of arrestin to an activated receptor.
Target sequence in this assay (P21453 whole entry, looked up, the tested form may be a part): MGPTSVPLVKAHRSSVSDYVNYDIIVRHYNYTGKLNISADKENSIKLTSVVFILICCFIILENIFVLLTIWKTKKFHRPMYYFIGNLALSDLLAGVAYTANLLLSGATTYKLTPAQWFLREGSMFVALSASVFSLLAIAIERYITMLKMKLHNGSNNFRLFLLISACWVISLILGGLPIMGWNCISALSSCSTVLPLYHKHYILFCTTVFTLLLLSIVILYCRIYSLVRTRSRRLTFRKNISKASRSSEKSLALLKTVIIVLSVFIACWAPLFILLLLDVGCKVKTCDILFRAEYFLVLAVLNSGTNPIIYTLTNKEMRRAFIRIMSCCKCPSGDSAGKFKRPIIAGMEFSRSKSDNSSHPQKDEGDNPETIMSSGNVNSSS
Target sequence in this assay (P32121 whole entry partner, looked up, the tested form may be a part): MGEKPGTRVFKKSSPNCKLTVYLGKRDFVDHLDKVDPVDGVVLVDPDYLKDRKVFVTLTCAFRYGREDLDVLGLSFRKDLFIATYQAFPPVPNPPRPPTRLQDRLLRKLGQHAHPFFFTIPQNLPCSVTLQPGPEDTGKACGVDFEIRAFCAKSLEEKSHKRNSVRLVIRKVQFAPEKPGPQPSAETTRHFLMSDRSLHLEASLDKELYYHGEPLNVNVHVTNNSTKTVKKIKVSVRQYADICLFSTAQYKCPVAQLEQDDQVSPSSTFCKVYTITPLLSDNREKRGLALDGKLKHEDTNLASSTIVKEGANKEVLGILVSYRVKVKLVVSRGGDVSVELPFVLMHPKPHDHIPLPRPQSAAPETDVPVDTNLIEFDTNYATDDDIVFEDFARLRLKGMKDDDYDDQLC

Assay [2] concerns the target T1, human sphingosine-1-phosphate receptor 1 (S1P1). The assay is described as follows: Inhibition of cAMP production (HTRF cAMP HiRange), S1P1 CHO-K1 cells. The note with it: for Emax: CHO-K1, efficacy (SPAN) normalized to fingolimod, read-out: hS1P1 cAMP SPAN. It is filed as cell-based. A digest of the protocol:
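CHO-K1 cells stably co-expressing human S1P1 (C-terminal Prolink tag) and EA-β-arrestin2 were grown in AssayComplete Media 6 at 37° C. and 5% CO2, plated, and incubated overnight. Agonist-driven inhibition of intracellular cAMP was read by TR-FRET with the HTRF cAMP HiRange kit on a PheraStar reader. Potency is pEC50, and efficacy (SPAN) is normalized to fingolimod.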
Target sequence in this assay (P21453 whole entry, looked up, the tested form may be a part): as the sequence (P21453 whole entry, looked up, the tested form may be a part) above
A general note: Changes in cAMP serve as a functional read-out for many G protein-coupled receptors.

[3] abbreviates: β-arrestin2 recruitment, S1P1 CHO-K1 cells.
The mark [4] stands for this setting: inhibition of cAMP production, S1P1 CHO-K1 cells.

`COc1cccc(-c2csc(-c3ccc4c(ccn4C(C)C)c3)n2)c1` [Compound 405, 2-(1-isopropylindol-5-yl)-4-(3-methoxyphenyl)thiazole]: in assay [1] (setting [3]), the “hS1P1 B-arrestin2 pEC50” value is under 5. For the same compound, the “hS1P1 cAMP pEC50” value in assay [2] (setting [4]) was under 6.5.

`Brc1ccccc1-c1noc(-c2ccc3c(c2)nnn3C2CCOCC2)n1` [Compound 233, 5-[3-(2-bromophenyl)-1,2,4-oxadiazol-5-yl]-1-(oxan-4-yl)-1H-1,2,3-benzotriazole]: the Emax in assay [1] and in assay [2] was under 75% in each case. Besides, the “hS1P1 B-arrestin2 pEC50” value in assay [1] (setting [3]) is under 5. In addition, the “hS1P1 cAMP pEC50” value in assay [2] (setting [4]) is under 6.5.

Consider `CC(C)n1ncc2cc(-c3nc(-c4ccccc4Br)no3)ccc21` [Compound 332, 3-(2-bromophenyl)-5-(1-isopropyl-1H-indazol-5-yl)-1,2,4-oxadiazole], for which the Emax in assay [1] and in assay [2] was over 75% in each case. In addition, in assay [1] (setting [3]), the “hS1P1 B-arrestin2 pEC50” value was over 5. The “hS1P1 cAMP pEC50” value in assay [2] (setting [4]) is listed as over 6.5.

With `CCC1(CC)C/C(=N\O)c2cc(-c3nc(-c4cccnc4)no3)ccc2O1` [Compound 431, N-[(4E)-2,2-diethyl-6-[3-(pyridin-3-yl)-1,2,4-oxadiazol-5-yl]-3,4-dihydro-2H-1-benzopyran-4-ylidene]hydroxylamine], the “hS1P1 B-arrestin2 pEC50” value in assay [1] (setting [3]) is recorded as under 5. In addition, the “hS1P1 cAMP pEC50” value in assay [2] (setting [4]) was under 6.5.

As for `CCC1(CC)CC(=O)c2cc(-c3nc(-c4ccnc(NC(C)=O)c4)no3)ccc2O1` [Compound 512, N-(4-(5-(2,2-diethyl-4-oxochroman-6-yl)-1,2,4-oxadiazol-3-yl)pyridin-2-yl)acetamide], in assay [1] (setting [3]), the “hS1P1 B-arrestin2 pEC50” value was over 5. Also, in assay [2] (setting [4]), the “hS1P1 cAMP pEC50” value is listed as over 6.5.

Turning to `OCCCn1nnc2cc(-c3noc(-c4ccccc4Br)n3)ccc21` [Compound 24, 3-(5-(5-(2-bromophenyl)-1,2,4-oxadiazol-3-yl)-1H-benzo[d][1,2,3]triazol-1-yl)propan-1-ol], in assay [1] (setting [3]), the “hS1P1 B-arrestin2 pEC50” value is under 5. Further, the “hS1P1 cAMP pEC50” value in assay [2] (setting [4]) was under 6.5.

With `CC(C)n1nnc2cc(-c3nc(-c4cccnc4Cl)no3)ccc21` [Compound 499, 5-[3-(2-chloropyridin-3-yl)-1,2,4-oxadiazol-5-yl]-1-(propan-2-yl)-1H-1,2,3-benzotriazole], the Emax in assay [1] and in assay [2] was over 75% each time. Further, the EC50 is under 10 µM in assay [1] (β-arrestin2 recruitment, S1P1 CHO-K1 cells, read-out: hS1P1 B-arrestin2 pEC50 (converted)) and under 0.316 µM in assay [2] (inhibition of cAMP production, S1P1 CHO-K1 cells, read-out: hS1P1 cAMP pEC50 (converted)).

On to `CC(C)Nc1ccc(-c2nnc(-c3ccc4c(c3)C(=O)NCC4)o2)cc1C#N` [Compound 638, 5-[5-(1-oxo-1,2,3,4-tetrahydroisoquinolin-7-yl)-1,3,4-oxadiazol-2-yl]-2-[(propan-2-yl)amino]benzonitrile], for which the “hS1P1 B-arrestin2 pEC50” value in assay [1] (setting [3]) is under 5. For the same compound, the “hS1P1 cAMP pEC50” value in assay [2] (setting [4]) was over 6.5.

As to `CC(C)n1nnc2cc(-c3noc(-c4ccccc4C#N)n3)ccc21` [Compound 279, 2-(3-(1-isopropyl-1H-benzo[d][1,2,3]triazol-5-yl)-1,2,4-oxadiazol-5-yl)benzonitrile], the Emax in assay [1] and in assay [2] was over 75% in each case. Also, the “hS1P1 B-arrestin2 pEC50” value in assay [1] (setting [3]) is reported as under 5. Besides, the “hS1P1 cAMP pEC50” value in assay [2] (setting [4]) is given as under 6.5.

For the compound `COc1cccc(F)c1-c1noc(-c2ccc3c(ccn3C(C)C)c2)n1` [Compound 328, 3-(2-fluoro-6-methoxy-phenyl)-5-(1-isopropylindol-5-yl)-1,2,4-oxadiazole], the “hS1P1 B-arrestin2 pEC50” value in assay [1] (setting [3]) is over 5. In assay [2] (setting [4]), the “hS1P1 cAMP pEC50” value was under 6.5.

On to `CC(C)n1ccc2cc(-c3nc(-c4cccc5c4OCO5)no3)ccc21` [Compound 326, 3-(benzo[d][1,3]dioxol-4-yl)-5-(1-isopropyl-1H-indol-5-yl)-1,2,4-oxadiazole], for which the Emax in assay [1] and in assay [2] was over 75% throughout. Besides, the “hS1P1 B-arrestin2 pEC50” value in assay [1] (setting [3]) was over 5. Besides, in assay [2] (setting [4]), the “hS1P1 cAMP pEC50” value was under 6.5.

For `CCC1(CC)CC(=O)c2cc(-c3nc(-c4ccc(C)s4)no3)ccc2O1` [Compound 34, 2,2-diethyl-6-(3-(5-methylthiophen-2-yl)-1,2,4-oxadiazol-5-yl)chroman-4-one], the “hS1P1 B-arrestin2 pEC50” value in assay [1] (setting [3]) is on record as over 5. The “hS1P1 cAMP pEC50” value in assay [2] (setting [4]) is reported as under 6.5.

With `CC(C)n1nnc2cc(-c3nc(-c4ccccn4)no3)ccc21` [Compound 241, 1-(propan-2-yl)-5-[3-(pyridin-2-yl)-1,2,4-oxadiazol-5-yl]-1H-1,2,3-benzotriazole], the Emax in assay [1] and in assay [2] was over 75% throughout. The “hS1P1 B-arrestin2 pEC50” value in assay [1] (setting [3]) is under 5. For the same compound, in assay [2] (setting [4]), the “hS1P1 cAMP pEC50” value is on record as under 6.5.

On to `CC(C)(CO)Cn1nnc2cc(-c3noc(-c4ccncc4C(F)(F)F)n3)ccc21` [Compound 528, 2,2-dimethyl-3-(5-(5-(3-(trifluoromethyl)pyridin-4-yl)-1,2,4-oxadiazol-3-yl)-1H-benzo[d][1,2,3]triazol-1-yl)propan-1-ol], for which the “hS1P1 B-arrestin2 pEC50” value in assay [1] (setting [3]) is listed as under 5. The “hS1P1 cAMP pEC50” value in assay [2] (setting [4]) was under 6.5.

`CCC1(CC)CC(=O)c2cc(-c3nc(-c4ccccc4OC)ns3)ccc2O1` [Compound 257, 2,2-diethyl-6-(3-(2-methoxyphenyl)-1,2,4-thiadiazol-5-yl)chroman-4-one]: the “hS1P1 B-arrestin2 pEC50” value in assay [1] (setting [3]) is reported as under 5. The “hS1P1 cAMP pEC50” value in assay [2] (setting [4]) was under 6.5.

`COc1cccc(OC)c1-c1noc(-c2ccc3c(cnn3C(C)C)c2)n1` [Compound 335, 3-(2,6-dimethoxyphenyl)-5-(1-isopropylindazol-5-yl)-1,2,4-oxadiazole]: the Emax in assay [1] and in assay [2] was under 75% throughout. The “hS1P1 B-arrestin2 pEC50” value in assay [1] (setting [3]) is recorded as under 5. In addition, the “hS1P1 cAMP pEC50” value in assay [2] (setting [4]) is under 6.5.

On to `Cc1ccc(-c2noc(-c3ccc4c(c3)nnn4C3CCCC3)n2)s1` [Compound 192, 1-cyclopentyl-5-[3-(5-methylthiophen-2-yl)-1,2,4-oxadiazol-5-yl]-1H-1,2,3-benzotriazole], for which the “hS1P1 B-arrestin2 pEC50” value in assay [1] (setting [3]) is given as under 5. In addition, the “hS1P1 cAMP pEC50” value in assay [2] (setting [4]) is under 6.5.

Turning to `CC(C)n1nnc2cc(-c3nc4c(o3)-c3ccccc3CC4)ccc21` [Compound 297, 5-{4H,5H-naphtho[2,1-d][1,3]oxazol-2-yl}-1-(propan-2-yl)-1H-1,2,3-benzotriazole], the Emax in assay [1] and in assay [2] was over 75% each time. The “hS1P1 B-arrestin2 pEC50” value in assay [1] (setting [3]) is under 5. In assay [2] (setting [4]), the “hS1P1 cAMP pEC50” value was under 6.5.

Take `Cc1ccc(-c2nc(-c3ccc4c(c3)nnn4C(C)C)no2)s1` [Compound 74, 5-[5-(5-methylthiophen-2-yl)-1,2,4-oxadiazol-3-yl]-1-(propan-2-yl)-1H-1,2,3-benzotriazole]: the Emax in assay [1] and in assay [2] was under 75% each time. In assay [1] (setting [3]), the “hS1P1 B-arrestin2 pEC50” value is under 5. Moreover, in assay [2] (setting [4]), the “hS1P1 cAMP pEC50” value was under 6.5.

As to `Cc1ccccc1-c1nsc(-c2ccc3c(ccn3C(C)C)c2)n1` [Compound 381, 5-[3-(2-methylphenyl)-1,2,4-thiadiazol-5-yl]-1-(propan-2-yl)-1H-indole], in assay [1] (setting [3]), the “hS1P1 B-arrestin2 pEC50” value was over 5. The “hS1P1 cAMP pEC50” value in assay [2] (setting [4]) is recorded as under 6.5.

In the case of `CC(C)n1ccc2cc(-c3nc(-c4ccccc4O)no3)ccc21` [Compound 323, 2-(5-(1-isopropyl-1H-indol-5-yl)-1,2,4-oxadiazol-3-yl)phenol], the Emax in assay [1] and in assay [2] was over 75% in each case. The “hS1P1 B-arrestin2 pEC50” value in assay [1] (setting [3]) is recorded as under 5. Besides, in assay [2] (setting [4]), the “hS1P1 cAMP pEC50” value is on record as under 6.5.
